7 molecules from US4057684A, “Alkyl amino-glucopyranoside derivative and process for producing the same” (priority 1975, dated 1977) can be followed below.

Series [1] concerns Nakahara-Fukuoka sarcoma (NFS). Nature of the series: antitumor effect against Nakahara-Fukuoka sarcoma (NFS) implanted in mice. It counts as in vivo, mouse (ICR). The source says:
(§1) Results of pharmacological studies for amino-glucopyranoside [I] according to the invention are described below. The test compounds which were used included methyl N-carbamyl-N'-(2-chloroethyl)-N'-nitroso-2-amino-2-deoxy-α-D-glucopyranoside and methyl N-carbamyl-N'-(2-chloroethyl)-N'-nitroso-6-amino-6-deoxy-α-D-glucopyranoside (hereinafter abbreviated to 2MCαG and 6MCαG, respectively). The control compounds which were employed were 1-(2-chloroethyl)-3-cyclohexyl-1-nitrosoourea (hereinafter abbreviated to CCNU), which had been widely applied as a control compound in such a pharmacological test of the streptozotocin derivatives, and GCNU referred to previously. The tumor systems which were used were leukemia L-1210, Nakahara-Fukuoka sarcoma, adenocarcinoma-755, ascites sarcoma 180 and Ehrlich ascites carcinoma (hereinafter abbreviated to L-1210, NFS, Ca-755, S-180A and EAC, respectively), and the antitumor activities were determined by a procedure of the National Cancer Center, Tokyo (A. Hoshi et al.: Farumashia 9, 464(1973)). The test animals which were used were ICR and BDF1 mice.
(§2) ^a Treatment was initiated 24 hr after implantation of tumor (day 1):
(§3) D1~5 = qd, day 1~5; D1 = day 1 only.
(§4) ^b T/C is expressed as the tumor weight ratio in solid tumors or tota
(§5) packed cell volume ratio in ascites tumors of treated/control.

The test system of series [2] is adenocarcinoma-755 (Ca-755). Put plainly: antitumor effect against adenocarcinoma-755 (Ca-755) implanted in mice. In kind it is in vivo, mouse (BDF1).
Text: as §1, §2, §3, §4, §5

Series [3] can be described thus: peripheral white blood cell counts (bone marrow toxicity) and survival in normal male ICR mice. In kind it is in vivo, mouse (ICR). The protocol:
Such peripheral white blood cell counts were performed as follows: Normal male ICR mice were used in groups of tens and the test compounds for treatment were made into their respective solutions. 2MCαG and 6MCαG were dissolved in physiological saline solutions, while CCNU and GCNU were suspended in 0.5% CMC aqueous solution and 50% PEG aqueous solution, respectively. A single administration at volume of 1 ml per 100 g body weight of animal (0.1 ml/10 g) was given intraperitoneally, and the peripheral white blood cell counts were performed 3, 8 and 15 days after administration of the test compounds.

For series [4], the system named is ascites sarcoma 180 (S-180A). Put plainly: antitumor effect against ascites sarcoma 180 (S-180A) implanted in mice. It counts as in vivo, mouse (ICR).
Text: as §1, §2, §3, §4, §5

Series [5] has as its system Ehrlich ascites carcinoma (EAC). Nature of the series: antitumor effect against Ehrlich ascites carcinoma (EAC) implanted in mice. It counts as in vivo, mouse (ICR).
Text: as §1, §2, §3, §4, §5

The next series relates to leukemia L-1210. Nature of the series: increase in life span and survival of leukemia L-1210 implanted mice. It counts as in vivo, mouse (BDF1).
Text: as §1, §2, §3
^d % increase in life span (mean survival time) over controls.
^e 60 days survivors/total in treated group.

The nature of series [6]: blood sugar level / diabetogenic activity. In kind it is in vivo, rat (male Wister). To be noted: rat, in vivo.
In a further series the test system is bacteria. Nature of the series: antibacterial activity, broth dilution method. For orientation: In broth dilution the organism is exposed to a series of concentrations in liquid medium.
The test system of series [7] is solid as well as ascites tumor systems. Nature of the series: antitumor activity in the tumor systems (overall). In kind it is in vivo, mouse. As to conditions: for antitumor activity compared with its α-anomer: vs α-anomer; for antitumor activity compared with the compounds of examples 1 and 4: mouse, in vivo.
Text: as §1

The mark [8] stands for this setting: 12.0 mg/kg/day ip D1~5, ICR mice.
Where [9] appears, read: 20.0 mg/kg/day ip D1~5, ICR mice.
The mark [10] stands for this setting: 10.0 mg/kg/day ip D1~5, BDF1 mice.
Setting [11] is: 25.0 mg/kg/day ip D1~5, BDF1 mice.
Where [12] appears, read: 8.5 mg/kg/day ip, 5 successive days, BDF1 mice.
The mark [13] stands for this setting: 12.5 mg/kg/day ip D1~5, ICR mice.
[14] abbreviates: 3.2 mg/kg/day ip, 5 successive days.

The T/C is the ratio of treated to control. On to `O=NN(CCCl)C(=O)NC1CCCCC1` [CCNU, 1-(2-chloroethyl)-3-cyclohexyl-1-nitrosoourea, reference compound], for which the Activity result in series [1] (setting [8]) was “+ (70~51% = +)”; in series [1] (setting [9]), “++ (50~21% = ++)”; in series [2] (setting [10]), “+++ (20~0% = +++)”; in [2] (setting [11]) it was “Toxic”. The T/C turned out to be 57.5% in [1] (setting [8]), 48.3% in series [1] (setting [9]), 15.0% in series [2] (setting [10]) and 1.1% in [2] (setting [11]). Also, the died/used in series [2] (setting [11]) is listed as 6/6. Moreover, the “Death rate (death/used)” value in series [3] (20 mg/kg ip single) was 0/10; in [3] (40 mg/kg ip single) it was 1/10; in [3] (60 mg/kg ip single) it was 9/10; in series [3] (80 mg/kg ip single), 10/10. Besides, the “Average count of WBC” value is 38.7±2.9 x 10^2 WBC/mm^3 in [3] (20 mg/kg ip single, day 3); 81.8±5.0 x 10^2 WBC/mm^3 in [3] (20 mg/kg ip single, day 8); 100.4±9.8 x 10^2 WBC/mm^3 in series [3] (20 mg/kg ip single, day 15); 31.5±1.7 x 10^2 WBC/mm^3 in [3] (40 mg/kg ip single, day 3); 59.0±6.0 x 10^2 WBC/mm^3 in [3] (40 mg/kg ip single, day 8); 77.9±9.0 x 10^2 WBC/mm^3 in [3] (40 mg/kg ip single, day 15). The “Average count of WBC” value was 27.9±3.7 x 10^2 WBC/mm^3 in [3] (60 mg/kg ip single, day 3); 60.0 x 10^2 WBC/mm^3 in series [3] (60 mg/kg ip single, day 8); 36.0 x 10^2 WBC/mm^3 in series [3] (60 mg/kg ip single, day 15); 20.4±2.5 x 10^2 WBC/mm^3 in [3] (80 mg/kg ip single, day 3).

What is called ILS is the gain in survival time of treated over control animals, in per cent. Turning to `CO[C@H]1O[C@H](CNC(=O)N(CCCl)N=O)[C@@H](O)[C@H](O)[C@H]1NC(=O)N(CCCl)N=O` [Example 3], the Activity result in series [1] (setting [12]), in [2] (setting [12]), in series [4] (setting [12]) and in [5] (setting [12]) was “++ or +++” throughout. In addition, the ILS with leukemia L-1210 (2.2 mg/kg/day ip, 5 successive days) is 400%; in the series with leukemia L-1210 (4.5 mg/kg/day orally), 370%; in the series on leukemia L-1210 (single ip, 7~15 mg/kg) it was 717%. Moreover, the 60-days survivors result in the series with leukemia L-1210 (single ip, 7~15 mg/kg) is recorded as “all six animals tested survived”. The “bone marrow toxicity compared with CCNU” value in [3] (mouse, in vivo) was “less than that of CCNU”. In addition, the “bone marrow toxicity compared with GCNU” value in [3] (mouse, in vivo) was “comparable to GCNU”. In addition, the diabetogenic activity entry in series [6] is listed as “nondiabetogenic”. Also, the antibacterial activity entry in the series with bacteria was “void of antibacterial activities”.

Turning to `CO[C@@H]1O[C@H](CO)[C@@H](O)[C@H](O)[C@H]1NC(=O)N(CCCl)N=O` [Example 4, methyl N-carbamyl-N'-(2-chloroethyl)-N'-nitroso-2-amino-2-deoxy-β-D-glucopyranoside], the Activity result in series [1] (setting [13]) is “++ or +++”; in series [2] (12.5 mg/kg/day ip D1~5, BDF1 mice), “++ or +++”; in [4] (setting [13]), “++ or +++”; in series [5] (setting [13]) it was “++ or +++”. In addition, the “accumulation of ascites tumor cells” value in [4] (setting [14]) and in series [5] (setting [14]) was “ascites cells accumulation was not detectable” throughout. For the same molecule, the ILS in the series on leukemia L-1210 (3.2 mg/kg/day ip D1~5) was 480%; in the series on leukemia L-1210 (6.3 mg/kg/day po D1~5), 385%; in the series with leukemia L-1210 (single ip, 8~25 mg/kg) it was 717%. Moreover, the 60-days survivors result in the series on leukemia L-1210 (single ip, 8~25 mg/kg) was “all six test animals surviving after 60-days”. Moreover, in series [3] (LD10 dosage), the “bone marrow toxicity, less than the α-anomer” value is on record as 5~20%. For the same molecule, the “peripheral white blood cell count, higher than that of the α-anomer” value in series [3] (LD10 dosage, 3, 8 and 15 days) is reported as 5~20%. The diabetogenic activity result in series [6] is “not found to be either diabetogenic”. Further, the antibacterial activity entry in the series with bacteria was “not found to be either diabetogenic or exhibited any antibacterial activities”. For the same molecule, the “antitumor activity compared with its α-anomer” value in series [7] is given as 110~120%.

In the case of `CO[C@@H]1O[C@H](CNC(=O)N(CCCl)N=O)[C@@H](O)[C@H](O)[C@H]1NC(=O)N(CCCl)N=O` [Example 7, methyl di-N,N'-[N-(2-chloroethyl)-N-nitroso-carbamyl]-2,6-di-amino-2,6-di-deoxy-3-D-glucopyranoside], in series [3] (vs compound of example 3), the “bone marrow toxicity compared with its α-anomer” value was “reduced bone marrow toxicities”. For the same molecule, in [6], the diabetogenic activity entry is given as “neither diabetogenic nor antibacterial activities”. Further, the antibacterial activity result in the series on bacteria is reported as “neither diabetogenic nor antibacterial activities”. Further, the “antitumor activity compared with its α-anomer” value in series [7] is reported as 5~20%.

As for `CCCCO[C@@H]1O[C@H](CO)[C@@H](O)[C@H](O)[C@H]1NC(=O)N(CCCl)N=O` [Example 9 3-anomer, n-butyl N-carbamyl-N'-(2-chloroethyl)-N'-nitroso-2-amino-2-deoxy-3-D-glucopyranoside], the “bone marrow toxicity compared with the compounds of examples 1 and 4” value in series [3] (mouse, in vivo) is “same low levels”. In addition, the diabetogenic activity result in [6] was “neither diabetogenic nor antibacterial activities”. For the same molecule, the antibacterial activity entry with bacteria is “neither diabetogenic nor antibacterial activities”. In series [7], the “antitumor activity compared with the compounds of examples 1 and 4” value was “same level of anitumor activity”.

Consider `CCCCO[C@H]1O[C@H](CO)[C@@H](O)[C@H](O)[C@H]1NC(=O)N(CCCl)N=O` [Example 9 α-anomer, n-butyl N-carbamyl-N'-(2-chloroethyl)-N'-nitroso-2-amino-2-deoxy-α-D-glucopyranoside], for which, in [3] (mouse, in vivo), the “bone marrow toxicity compared with the compounds of examples 1 and 4” value is on record as “same low levels”. Moreover, the diabetogenic activity result in [6] is “neither diabetogenic nor antibacterial activities”. For the same molecule, the antibacterial activity result in the series on bacteria is “neither diabetogenic nor antibacterial activities”. For the same molecule, the “antitumor activity compared with the compounds of examples 1 and 4” value in series [7] is reported as “same level of anitumor activity”.

Turning to `CO[C@@H]1O[C@H](CNC(=O)N(CCCl)N=O)[C@@H](O)[C@H](O)[C@H]1O` [Example 12, methyl N-carbamyl-N'-(2-chloroethyl)-N'-nitroso-6-amino-6-deoxy-β-D-glucopyranoside], in [3] (vs α-anomer), the “reduced bone marrow toxicity compared with its α-anomer” value is 110~120%. The diabetogenic activity result in [6] is reported as “neither diabetogenic nor antibacterial activities”. Besides, the antibacterial activity entry in the series on bacteria is “neither diabetogenic nor antibacterial activities”. Moreover, the “antitumor activity compared with its α-anomer” value in [7] was 110~120%.
